In patent US20060079463A1 (priority 2003, published 2006):

Columns and labels:
Mouse Hepatoma H22 = assay: Kunming mouse Hepatoma H22 model, in vivo tumor growth; conditions: for Tumor Size (Mean ± SD, g) / Tumor Inhibition (%): Table 2.2; for Tumor Size (Mean ± SD, g) / Tumor Inhibition (%) / Compared to Glucose group Inhibition (%) / Compared to Saline group Inhibition (%) / Tumor size Mean ± SD: 10 days; for Tumor Inhibition (%): vs saline; for Compared to Glucose group Inhibition (%) / Compared to Saline group Inhibition (%) / Tumor size Mean ± SD: Table 6.2
Protocol: (§1) (2) Kunming mouse Hepatoma H22 model: Mouse Hepatoma H22 ascites tumor cells, 1×10E6 cells in 0.2 ml saline per mouse, were injected subcutaneously to the right axillary space of 5- to 6-week old Kunming mice.
(§2) C. […] The amount of either tested drug for one kg mouse was prepared as 10 ml solution, and 10 micro-liters per gram of mouse were injected intraperitoneally, once or twice daily, for 10 consecutive days for the Kunming mice with Sarcoma S-180 and Hepatoma H22, and for 15 consecutive days for C57BL/6 mice with melanoma B16. 50% glucose, 30 ml/kg, was given by gavage to selected groups of mice receiving the tested drug 60 to 90 minutes before each injection. One group of mice received saline only while another group of mice received the glucose treatment without the tested drug; these groups served as the saline-only control and the glucose-only control, respectively. A third group of mice received intraperitoneal injection of cyclophosphamide (CTX), or 5-Fluorouracil (5FU), 25 to 50 mg/kg body weight, was included in some experiments as positive control. At the end of the experiment, mouse body weight was taken, and the Sarcoma S-180, or Hepatoma H22 tumors were dissected and weighted, while the tumor size of melanoma B16 was measured using a caliper. Melanoma B16 tumor volume was calculated using the following equation: Tumor volume=S*S*L*0.5, where S is the short diameter, and L stands for long diameter of the tumor according to Beck M T et al. (Cancer Research 63:3598, 2003).

Mouse Sarcoma S-180 = assay: Kunming mouse Sarcoma S-180 model, in vivo tumor growth; conditions: for Tumor Size (Mean ± SD, g) / Tumor Inhibition (%) / Tumor Weight (Mean ± SD, g) / Tumor Inhibition Rate (%): 10 days; for Tumor Weight (Mean ± SD, g) / Tumor Inhibition Rate (%): Table 3.2
Protocol: (§3) (1) Kunming mouse Sarcoma S-180 model: Mouse Sarcoma S-180 ascites tumor cells, 1×10E6 cells resuspended in 0.2 ml saline per mouse, were injected subcutaneously to the right axillary space of 5- to 6-week old Kunming mice.
as §2

[1] = Body weight of mice with B16 melanoma; conditions: Table 4.1; CTX 50 mg/kg i.p., 1 dose/day, 15 days
Protocol: (§4) (3) C57BL/6 mouse melanoma B16 model: Mouse melanoma B16 cells, 1×10E7 cells in 0.2 ml of saline per mouse, were injected subcutaneously into right axillary space of 6 to 8 week old C57BL/6 mice. The mice were randomly divided into groups after tumor cell inoculation.
as §2, with “A third group of mice received intraperitoneal injection of cyclophosphamide (CTX), or 5-Fluorouracil (5FU), 25 to 50 mg/kg body weight, was included in some experiments as positive control.” left out

[2] = Body weight of mice bearing Hepatoma H22; conditions: Table 2.1; CTX 25 mg/kg i.p., 1 dose/day, 10 days
Protocol: as §1
as §2, with “A third group of mice received intraperitoneal injection of cyclophosphamide (CTX), or 5-Fluorouracil (5FU), 25 to 50 mg/kg body weight, was included in some experiments as positive control.” left out

[3] = Body weight of mice bearing Sarcoma S-180; conditions: CTX 30 mg/kg i.p., 1 dose/day, 10 days
Protocol: as §3, §2

Mouse melanoma B16 = assay: C57BL/6 mouse melanoma B16 model, tumor growth; assay type: in vivo; conditions: for Tumor Size (Mean ± SD, mm3) / Tumor Inhibition (%): Table 4.2, 1 dose/day, 15 days; for Tumor Inhibition (%): vs saline
Protocol: as §4, §2

[4] = human, in vivo; cited from earlier work
[5] = Toxicity observation during URIN and MAIN administration in tumor-bearing mice; assay type: in vivo; conditions: i.p., up to 4480 mg/kg once or twice daily
Protocol: as §2

[6] = cited from earlier work
[7] = test system: human melanoma xenographts; conditions: a dose of MIBG under hyperglycemic conditions, SCID mice; cited from earlier work
[8] = MAIN H 3750 mg/kg i.p., 2 doses/day, glucose pre-treatment
[9] = MAIN L 1500 mg/kg i.p., 2 doses/day, glucose pre-treatment
[10] = MAIN M 2500 mg/kg i.p., 2 doses/day, glucose pre-treatment
[11] = URIN 4480 mg/kg i.p., 2 doses/day, no glucose
[12] = URIN H 4480 mg/kg i.p., glucose pre-treatment
[13] = URIN L 1680 mg/kg i.p., glucose pre-treatment

## O=P1(N(CCCl)CCCl)NCCCO1 (stereo not shown) [CTX, cyclophosphamide]
Mouse Hepatoma H22; CTX 25 mg/kg i.p., 1 dose/day
  Tumor Size (Mean ± SD, g): 1.21 ± 0.37 g
  Tumor Inhibition (%): 48.1%
Mouse Sarcoma S-180; Table 1.2, CTX 30 mg/kg i.p., 1 dose/day
  Tumor Size (Mean ± SD, g): 0.53 ± 0.14 g
Mouse Sarcoma S-180; Table 1.2, CTX 30 mg/kg i.p., 1 dose/day, vs saline
  Tumor Inhibition (%): 61.3%
Mouse Sarcoma S-180; CTX 30 mg/kg i.p., 1 dose/day
  Tumor Weight (Mean ± SD, g): 0.53 ± 0.22 g
Mouse Sarcoma S-180; CTX 30 mg/kg i.p., 1 dose/day, vs saline
  Tumor Inhibition Rate (%): 73.0%
[1]
  Body weight (Mean ± SD, g) End: 18.6 ± 1.6 g
  Body weight (Mean ± SD, g) Start: 20.3 ± 1.5 g
[2]
  Body weight (Mean ± SD, g) End: 32.6 ± 2.5 g
  Body weight (Mean ± SD, g) Start: 24.6 ± 1.0 g
[3]; Table 1.1
  Body weight (Mean ± SD, g) End: 23.5 ± 1.7 g
  Body weight (Mean ± SD, g) Start: 21.9 ± 1.1 g
[3]; Table 3.1
  Body weight (Mean ± SD, g) End: 23.0 ± 2.9 g
  Body weight (Mean ± SD, g) Start: 21.4 ± 1.0 g
Mouse melanoma B16; CTX 50 mg/kg i.p.
  Tumor Size (Mean ± SD, mm3): 118 ± 100 mm3
  Tumor Inhibition (%): 97%

## O=c1[nH]cc(F)c(=O)[nH]1 [5FU, 5-Fluorouracil]
Mouse Hepatoma H22; 5FU 25 mg/kg i.p., 1 dose/day
  Compared to Glucose group Inhibition (%): 71.4%
  Compared to Saline group Inhibition (%): 77.4%
  Tumor size Mean ± SD: 0.48 ± 0.25 g

## C1N2CN3CN1CN(C2)C3.O=C(O)C(O)c1ccccc1 (stereo not shown) [MAIN, methenamine mandelate]
[4]
  Side effects resulting from long term use: negligible
Mouse Hepatoma H22; [8]
  Compared to Glucose group Inhibition (%): 38.7%
  Compared to Saline group Inhibition (%): 51.4%
  Tumor size Mean ± SD: 1.03 ± 0.66 g
Mouse Hepatoma H22; [9]
  Compared to Glucose group Inhibition (%): 6.0%
  Compared to Saline group Inhibition (%): 25.5%
  Tumor size Mean ± SD: 1.58 ± 0.42 g
Mouse Hepatoma H22; [10]
  Compared to Glucose group Inhibition (%): 6.5%
  Compared to Saline group Inhibition (%): 25.5%
  Tumor size Mean ± SD: 1.57 ± 0.74 g
Mouse Sarcoma S-180; Table 5.2, MAIN H 3714 mg/kg i.p., 2 doses/day, glucose pre-treatment
  Tumor Size (Mean ± SD, g): 1.25 ± 0.41 g
Mouse Sarcoma S-180; Table 5.2, MAIN H 3714 mg/kg i.p., 2 doses/day, glucose pre-treatment, vs glucose group
  Tumor Inhibition (%): 45.9%
Mouse Sarcoma S-180; Table 5.2, MAIN L 1485 mg/kg i.p., 2 doses/day, glucose pre-treatment
  Tumor Size (Mean ± SD, g): 2.14 ± 0.60 g
Mouse Sarcoma S-180; Table 5.2, MAIN L 1485 mg/kg i.p., 2 doses/day, glucose pre-treatment, vs glucose group
  Tumor Inhibition (%): 7.4%
Mouse Sarcoma S-180; Table 5.2, MAIN M 2320 mg/kg i.p., 2 doses/day, glucose pre-treatment
  Tumor Size (Mean ± SD, g): 1.85 ± 0.62 g
Mouse Sarcoma S-180; Table 5.2, MAIN M 2320 mg/kg i.p., 2 doses/day, glucose pre-treatment, vs glucose group
  Tumor Inhibition (%): 19.9%

## C1N2CN3CN1CN(C2)C3 [URIN, Methenamine]
Mouse Hepatoma H22; [11]
  Tumor Size (Mean ± SD, g): 1.37 ± 0.39 g
  Tumor Inhibition (%): 41.2%
Mouse Hepatoma H22; administration of URIN
  In vivo growth of mouse tumor Hepatoma H22 (conclusion): significantly inhibited
Mouse Sarcoma S-180; Table 1.2, URIN 4480 mg/kg i.p., 2 doses/day, no glucose
  Tumor Size (Mean ± SD, g): 1.07 ± 0.31 g
Mouse Sarcoma S-180; Table 1.2, URIN 4480 mg/kg i.p., 2 doses/day, no glucose, vs saline
  Tumor Inhibition (%): 21.9%
Mouse Sarcoma S-180; URIN H 4480 mg/kg i.p., 2 doses/day, glucose pre-treatment
  Tumor Weight (Mean ± SD, g): 1.25 ± 0.41 g
Mouse Sarcoma S-180; URIN H 4480 mg/kg i.p., 2 doses/day, glucose pre-treatment, vs saline
  Tumor Inhibition Rate (%): 36.2%
Mouse Sarcoma S-180; URIN L 1680 mg/kg i.p., 2 doses/day, glucose pre-treatment
  Tumor Weight (Mean ± SD, g): 1.54 ± 0.56 g
Mouse Sarcoma S-180; URIN L 1680 mg/kg i.p., 2 doses/day, glucose pre-treatment, vs saline
  Tumor Inhibition Rate (%): 21.4%
Mouse Sarcoma S-180; URIN M 2800 mg/kg i.p., 2 doses/day, glucose pre-treatment
  Tumor Weight (Mean ± SD, g): 1.57 ± 0.50 g
Mouse Sarcoma S-180; URIN M 2800 mg/kg i.p., 2 doses/day, glucose pre-treatment, vs saline
  Tumor Inhibition Rate (%): 19.9%
Mouse Sarcoma S-180; administration of URIN
  In vivo growth of mouse tumor Sarcoma S-180 (conclusion): significantly inhibited
[5]
  Death from drug toxicity: No mouse died of URIN toxicity
[6]; pH-neutral medium
  Stability in a pH-neutral medium: very stable
[6]; serum and normal tissue
  Liberation of formaldehyde in serum and normal tissue: does not liberate formaldehyde
Mouse melanoma B16; [12]
  Tumor Size (Mean ± SD, mm3): 2755 ± 1098 mm3
  Tumor Inhibition (%): 32.1%
Mouse melanoma B16; [13]
  Tumor Size (Mean ± SD, mm3): 3376 ± 1419 mm3
  Tumor Inhibition (%): 16.7%
Mouse melanoma B16; URIN M 2800 mg/kg i.p., glucose pre-treatment
  Tumor Size (Mean ± SD, mm3): 4241 ± 1834 mm3
Mouse melanoma B16; URIN M 2800 mg/kg i.p., glucose pre-treatment, value in bracket = increased rate
  Tumor Inhibition (%): (−14.6%)
Mouse melanoma B16; administration of URIN
  In vivo growth of mouse tumor B16 Melanoma (conclusion): significantly inhibited

## N=C(N)NCc1cccc(I)c1 [MIBG, m-Iodpbenzylguanidine]
[7]
  Reduction of extracellular pH of tumor: up to 0.59 units
